From US5731328A, “Methods of inhibiting plasminogen activator inhibitor 1” (Eli Lilly and Company, priority 1996, dated 1998)

How the values were obtained:
PAI-1 = conditions: post-menopausal women, estrogen therapy; cited from earlier work
[1] = system: Human umbilical vein endothelial cells (HUVEC); test: Responsiveness of HUVEC lots to 17-beta estradiol; assay type: cell-based; conditions: several lots of cells from Clonetics, initial experiments
[2] = system: secretion of PAI-1 from human endothelial cells (HUVEC); test: Endothelial cell PAI-1 assay: IL-1 induced PAI-1 secretion, Imubind Plasma PAI-1 ELISA; assay type: cell-based
Protocol: 96 well tissue culture plates were prepared with 5×10^4 human endothelial cells (HUVEC) per well in Clonetics' Endothelial Cell Growth Medium (EGM) supplemented with 2% FBS. Following incubation overnight at 37° C., the medium was replaced with serum-free medium (DMEM/F-12 medium, 20 mM-HEPES, pH 7.5, 50 μg/ml gentamicin, 1 μg/ml human transferrin and 1 μg/ml bovine insulin) with or without compound 1, (where R1 and R2 are hydroxy, and […] is pyrrolidino), and with or without 1 nM IL-1-beta. Following incubation overnight at 37° C., samples of culture medium were assayed for secreted PAI-1 using the Imubind Plasma PAI-1 ELISA (American Diagnostic Inc. #822/1S).
Human umbilical vein endothelial cells (HUVEC) were treated with compound 1 concurrent to the induction of PAI-1 with IL-1. […] Further the positive effect of compound 1 on reducing PAI-1 may provide for acute uses in conditions where elevated levels are associated with pathology.

estrogen receptor = conditions: cited from earlier work

**Q.** With estrogen as the compound, how does the “reduction of PAI-1 levels (in words)” value (PAI-1) read?
**A.** Its value is “reduced to pre-menopausal levels”.

**Q.** For `C[C@]12CC[C@@H]3c4ccc(O)cc4CC[C@H]3[C@@H]1CC[C@@H]2O` [17-beta estradiol], which “responsiveness of HUVEC lots (in words)” value [1] is on record?
**A.** The value was “not all lots were responsive”.

**Q.** Which results are given for `O=C(c1ccc(OCCN2CCCC2)cc1)c1c(-c2ccc(O)cc2)sc2cc(O)ccc12` [Compound 1]?
**A.** induction of PAI-1 by IL-1 (in words) ([2]; 0.5 nM, estrogen-responsive line): significantly reduced the induction of PAI-1 by IL-1; inhibition at 0.005 µM ([2]; Homo sapiens, 5 × 10^-9 M, IL-1 induced secretion, different lot of estrogen-responsive HUVEC, read-out: PAI-1 Level (% inhibition)): 82 ± 17%; inhibition at 0.0005 µM ([2]; Homo sapiens, 5 × 10^-10 M, IL-1 induced secretion, different lot of estrogen-responsive HUVEC, read-out: PAI-1 Level (% inhibition)): 65 ± 8%; inhibition at 50 pM ([2]; Homo sapiens, 5 × 10^-11 M, IL-1 induced secretion, different lot of estrogen-responsive HUVEC, read-out: PAI-1 Level (% inhibition)): 48 ± 11%; inhibition at 5 pM ([2]; Homo sapiens, 5 × 10^-12 M, IL-1 induced secretion, different lot of estrogen-responsive HUVEC, read-out: PAI-1 Level (% inhibition)): 22 ± 4%; inhibition at 500 fM ([2]; Homo sapiens, 5 × 10^-13 M, IL-1 induced secretion, different lot of estrogen-responsive HUVEC, read-out: PAI-1 Level (% inhibition)): -1 ± 7%; inhibition at 50 fM ([2]; Homo sapiens, 5 × 10^-14 M, IL-1 induced secretion, different lot of estrogen-responsive HUVEC, read-out: PAI-1 Level (% inhibition)): 0%; PAI-1 Level (mean +/- SE, n = 4) ([2]; IL-1 & .5 nM compound 1, HUVEC, overnight at 37° C., serum-free medium, No IL-1 control 328 +/- 46, IL-1 alone 735 +/- 11): 521 ± 52 ng/mL; inhibition of IL-1 induced PAI-1 secretion, concentration dependence (in words) ([2]; different lot of estrogen-responsive cells): inhibited IL-1 induced secretion in a concentration-dependent manner; inhibition of the induction of PAI-1 from activated endothelial cells (in words) ([2]; summary of Tables 1 and 2): very potent inhibitor

**Q.** For `O=C(c1ccc(OCCN2CCCCC2)cc1)c1c(-c2ccc(O)cc2)sc2cc(O)ccc12` [Raloxifene], which “binding to the estrogen receptor (in words)” value (estrogen receptor) is on record?
**A.** Its value is “shown to bind to the estrogen receptor”.
